# Measurements as given in patent US20250130239A1, “PROTEIN DEGRADER” (University of Dundee, priority 2021, published 2025).
# Legend:
# VHL (VCB protein) = molecular target: T1, VHL (VCB protein) (Homo sapiens, UniProt P40337); experiment: Fluorescence polarization competitive binding assay, binary binding; conditions: compound alone; displacement of HIF-1a peptide probe; read-out: binary affinity to VHL Kd
# T1 construct: N-terminally Hiss-tagged VHL (54-213); His6 (N, cleaved yes); made in house; host or cells: E. coli
# Experimental: (§1) Protein Expression and Purification. […] The complex was further purified by anion exchange followed by gel filtration chromatography.
# (§2) Fluorescence Polarization Binding Assay. […] All components were dissolved from stock solutions using 100 mM Bis-Tris propane, 100 mM NaCl, 1 mM DTT, pH 7.0, to yield a final assay volume of 15 μL. DMSO was added as appropriate to ensure a final concentration of 2% v/v. […] Percentage displacement values were obtained by normalization of controls were plotted against Log[Compound]. IC50 values were determined for each titration using nonlinear regression analysis with Prism (v. 9.1.0, GraphPad). […] Cooperativity values (a) for each PROTAC were calculated using the ratio: α=binary Kd (−bromodomain)/ternary Kd (+bromodomain).
# [1] = molecular target: T2, VHL, compound preincubated with Brd4^BD2 L387A (Homo sapiens, UniProt O60885+P40337, L387A); experiment: Fluorescence polarization competitive binding assay, ternary complex binding; conditions: displacement of HIF-1a peptide probe, read-out: ternary binding affinity Kd
# T2 construct: N-terminally Hiss-tagged VHL (54-213); N-terminally His6-tagged Brd4-BD2^L387A (333-460) was expressed in E. coli; His6 (N, cleaved yes); made in house; host or cells: E. coli
# Experimental: as §1, §2
# BromoTag-Brd2 = molecular target: T3, BromoTag-Brd2 (Homo sapiens, UniProt O60885+P40337, L387A); experiment: Recovery (washout) assay; type: cell-based
# T3 construct: comprising residues 368-440 of human Brd4; Brd2 (endogenous protein, fusion partner in the same polypeptide); eGFP-P2A (upstream marker in the knock-in cassette) (N, cleaved yes); expressed in transfected cells; host or cells: HEK293, heterozygous CRISPR knock-in at the endogenous BRD2 locus
# Experimental: Recovery Assay. A recovery assay was performed using 200 nM AGB1 over a 72 h period. This was performed in the genotype verified heterozygous BromoTag-Brd2 HEK293 cell line. Heterozygous BromoTag-Brd2 HEK293 cells were plated at a density of 5×10^5 cells per well of a six-well plate a day before initiating the recovery assay. On the experiment day, cells were washed with PBS before fresh DMEM was applied to contain either DMSO or AGB1 200 nM. During treatment, cells were kept at 37° C., 5% CO2, and 95% humidity. After three hours, the recovery and vehicle control condition cells were rewashed with PBS before fresh DMEM was applied absent 200 nM AGB1 or DMSO. As for the positive control condition, they were left with 200 nM AGB1 for the remainder of the treatment time.
# Western Blotting. All cells were harvested on ice with RIPA lysis, and extraction buffer (ThermoFisher Scientific, 89901) supplemented with protease inhibitor cocktail (Merck, 11697498001) and Benzonase® Nuclease (Sigma, E1014) before being store at −20° C. prior to use. Total protein quantity was determined using the BCA protein assay (#23225, Pierce, Rockford, Illinois). Protein concentration was determined using the BCA assay (ThermoFisher Scientific, 23225). Samples were then prepared and loaded onto NuPAGE™ 4-12% Bis-Tris Midi gels (ThermoFisher Scientific, WG1403A), followed by the transfer of the proteins onto nitrocellulose membranes (EMD Millipore). The membranes were blocked for 1 h prior to incubation with the primary antibodies using 5% Milk TBST. Membranes were probed for Brd2 (Abcam, Ab139690, 1:1000), Brd3 (Abcam, Ab50818, 1:4000), Brd4 (Abcam, Ab128874, 1:1000) or our polyclonal Brd4^BD2 L387A antibody. […] All western blots were analysed for band intensities using Image Lab from Bio-Rad (LI-COR, Biosciences). The data extracted from these blots were then plotted and analysed using Prism (v. 8.2.0, GraphPad).
# [2] = molecular target: T4, BRD4 (O60885), BromoTag N-term (Homo sapiens, UniProt O60885+P40337, L387A); experiment: Degradation of BromoTag'ed BRD4 by AGB1; type: cell-based
# T4 construct: comprising residues 368-440 of human Brd4; expressed in transfected cells
# Text: (§3) Degradation of a variety of target proteins. […] We performed CRISPR knock-in of the BromoTag, as described, into the endogenous loci of five additional proteins. […] The target proteins of Table 6 are all different, are all known to have different cellular roles and function, intracellular expression, and distinctive turnover rates within cells.
# [3] = molecular target: T5, MCM4 (P33991), BromoTag N-term (Homo sapiens, UniProt O60885+P40337, L387A); experiment: Degradation of BromoTag'ed MCM4 by AGB1; type: cell-based
# T5 construct: comprising residues 368-440 of human Brd4; MCM4 (endogenous protein, fusion partner in the same polypeptide); expressed in transfected cells
# Text: as §3
# [4] = molecular target: T6, PPM1H (Q9ULR3), BromoTag C-term (Homo sapiens, UniProt O60885+P40337, L387A); experiment: Degradation of BromoTag'ed PPM1H by AGB1; type: cell-based
# T6 construct: comprising residues 368-440 of human Brd4; PPM1H (endogenous protein, fusion partner in the same polypeptide); expressed in transfected cells
# Text: as §3
compound,measurement,setting,value
"CC[C@@H](C(=O)OCCOCCOCCOCC(=O)N[C@H](C(=O)N1C[C@H](O)C[C@H]1C(=O)NCc1ccc(-c2scnc2C)cc1)C(C)(C)C)[C@@H]1N=C(c2ccc(Cl)cc2)c2c(sc(C)c2C)-n2c(C)nnc21 (single isomer, unassigned) [AGB1 (46)]",Kd,VHL (VCB protein),125 nM
same,Kd,[1],11 nM
same,time after washout at which BromoTag-Brd2 protein levels recover,"BromoTag-Brd2; 200 nM for 3 h, then washout",24 h
same,BromoTag-Brd2 level after 3 h treatment,"BromoTag-Brd2; 200 nM, 3 h",complete depletion
same,on-target degradation without washout,"BromoTag-Brd2; 200 nM, no washout",complete and durable on-target degradation for up to 72 h
same,Dmax,[2],> 95%
same,pDC50,"[2]; BromoTag'ed BRD4, N-term tag",7.9
same,Dmax,[3],> 99%
same,pDC50,"[3]; BromoTag'ed MCM4, N-term tag",8.1
same,Dmax,[4],> 95%
same,pDC50,"[4]; BromoTag'ed PPM1H, C-term tag",>7.0
